Assay results published in US8603550B1, “Compositions for topical treatment” (priority 2013, dated 2013).

Legend:
[1] = test system: Staphylococcus aureus ATCC 6538 (MSSA); assay: Zone of inhibition test (agar well); type: cell-based; conditions: S. aureus ATCC 6538; 7 mm well, about 0.2 ml product, 37° C., 24 hours
Experimental: (§1) An overnight culture of the test organism is diluted to 0.40 OD at 600 nm and then further diluted 10^−2 to obtain approximately 3×10^6 CFU/ml for the inoculation of TSA or SDA plates as follows: a 0.5 ml volume is spread across the surface of a sterile agar plate and allowed to dry. A 7 mm well is made in the center of the agar plate and approximately 0.2 ml of product is pipetted into the well. Additionally, Finipil is tested against S. aureus. The plates are incubated at 37° C. for 24 hours and the zones of inhibition are determined by measuring the diameter of the clear circular area around the product filled well.
(§2) *Becton Dickinson BBL Cefoxitin 30 microgram Sensi-Disk® sensitivity disks will be used to indicate susceptibility to Methicillin

[2] = test system: Staphylococcus aureus ATCC 33592 (MRSA); assay: Zone of inhibition test (agar well); type: cell-based; conditions: S. aureus ATCC 33592 (methicillin resistant); 7 mm well, 37° C., 24 hours
Experimental: as §1, §2

Structure (SMILES): CO[C@@]1(NC(=O)Cc2cccs2)C(=O)N2C(C(=O)O)=C(COC(N)=O)CS[C@@H]21 [Cefoxitin disk, Cefoxitin]
- Zone of inhibition (diameter) [1]: 33 mm
- Zone of inhibition (diameter) [2]: 10 mm
